Read-outs that look alike come from different tables or passages of the source.
Tests used:
histamine-(H1)-receptor = biological target: T1, histamine-(H1)-receptor (Cavia porcellus, UniProt P31389); test: Histamine-(H1)-receptor antagonism in vitro, histamine-induced contractions of isolated ileum; type: cell-based, guinea pig (Dunkin Hartley); details: test substance 10^-6 mole/l, histamine 5 × 10^-6 mole/l
T1 construct: Segments of the ileum 1.5 cm long from Dunkin Hartley guinea pigs; from tissue; host or cells: isolated ileum of Dunkin Hartley guinea pigs
Method: 3. Investigation of Anti-Histamine-(H1) Effect Based on Histamine-(H1)-Receptor Antagonism In Vitro
To investigate the histamine-(H1)-receptor antagonism of the test substances, the inhibiting effect of the substances on histamine-induced contractions of the smooth muscle was determined in vitro on the isolated organ. Isolated strips of organ from the ileum are suitable for this purpose. In an organ bath of physiological saline solution the smooth muscle strips react to the addition of histamine by contracting. […] The extent of regression of the contraction is an indication of the anti-histamine-(H1) activity of the compounds. The investigation was carried out analogously to the method originally described by Magnus (Pfluegers Arch. 102, 123 (1904)).
Procedure for determining the smooth muscle contraction inhibiting effect on isolated guinea pig ileum induced by a 5×10^-6 molar histamine concentration
Segments of the ileum 1.5 cm long from Dunkin Hartley guinea pigs having a body weight of 300 500 g were used for the test. Each strip was placed in an organ bath of 10 ml of physiological saline solution according to Krebs-Henseleit and attached to a conventional apparatus for isotonic measurement of changes in length of the ileum strips (automated Celaster measuring apparatus), so that the tissue was under 1 g of tension. The bath was kept at a pH of 7.4 and gassed with a mixture of 5% CO2 and 95% O2. After an equilibration phase, an isotonic contraction of the tissue was induced by adding histamine in a final concentration of 5×10^-6 mole/liter and washing it out again after a contact time of 30 seconds. Only tissues samples from which three reproducible contractions were obtained at 10 minute intervals were used in the subsequent test. The test substances were then added in a final concentration of 10^-6 mole/liter, and after 30 seconds contact time histamine was again added up to a concentration of 5×10^-6 mole/liter. The resulting contractions were measured over 30 seconds. The tissue was then washed several times over a period of 10 minutes. Histamine was then added again to stimulate a contraction. The resulting contractions were again measured over 30 seconds. The difference between the amplitude of the contraction obtained by histamine addition alone and the amplitude of the contraction obtained in the presence of the test substance was determined and expressed in terms of % inhibition.
The inhibiting effects on the contractions induced by histamine 30 seconds after administration of the test substance and on the contractions induced by the addition of histamine 10 minutes later are listed in the table.

[1] = system: histamine-induced anaphylactoid cutaneous reaction; test: Inhibition of histamine-induced anaphylactoid cutaneous reaction in rats; type: in vivo, Sprague-Dawley rats; details: Rattus norvegicus, 1 h, 2 × 10^-5 mole/kg per os, one hour before ovalbumin challenge
Method: (§1) 1. Determining Inhibition of Passive Cutaneous Anaphylaxis (PCA) and Histamine-Induced Anaphylactoid Cutaneous Reaction
(§2) The inhibition of the passive cutaneous anaphylaxis and of the anaphylactoid cutaneous reaction induced by histamine was determined as follows:
(§3) Sprague-Dawley rats having a body weight of 150-180 g were injected intradermally in one flank with 50 μl of a 1:75 dilution of the IgE-rich ovalbumin antiserum in physiological saline solution to passively sensitize them to ovalbumin.
(§4) 24 hours after sensitization a solution of 8.25 mg/kg of ovalbumin and 26.4 mg/kg of a blue dye (Evans's Blue) was administered to the rats intravenously according to Martin et al. to trigger passive cutaneous anaphylaxis.
To determine the histamine-induced anaphylactoid skin reaction, the animals are injected intradermally in the flank opposite to the antiserum administration with 50 μl of a physiological saline solution containing 0.8 mg/ml histamine directly before the intravenous injection of the solution containing the ovalbumin and the blue dye.
(§5) On the day of the experiment the test substances were dissolved in distilled water which contained 1 vol. % dimethylformamide and 1 vol. % of Tween™ 20 (=polyoxyethylene (20) sorbitan monolaurate). One hour before administration of the ovalbumin challenge, each animal was orally administered 2×10^-5 mole/kg of test substance in 0.5 ml of solution. For comparison purposes a control group received only the solvent.
(§6) The edematous anaphylactic (PCA) and anaphylactoid (histamine-induced) reactions caused by the stimulation of the intravenous ovalbumin injection, which manifested themselves by edema formation, swelling and exudation of blue dye, were evaluated 30 minutes after their initiation by the intravenous ovalbumin injection. This was done by visually determining the extent to which the blue dye emerged at the sites of edema formation. The percentage inhibition of anaphylactic and anaphylactoid reactions induced by the test substances in comparison with the reactions of the control animals not treated with any test substance was determined using comparison scales.
(§7) The results obtained using compounds of formula I according to the foregoing test methods are shown in the following Table A. The example numbers given for the compounds of formula I relate to the subsequent preparative examples.

[2] = system: passive cutaneous anaphylaxis (PCA); test: Inhibition of passive cutaneous anaphylaxis (PCA) in rats; type: in vivo, Sprague-Dawley rats; details: Rattus norvegicus, 1 h, 2 × 10^-5 mole/kg per os, one hour before ovalbumin challenge
Method: as §1
The PCA reaction is carried out following the methods described by Goose et al. (J. N. Immunology 16 (1969), 749) and by Martin et al. (Arch. Pharmacol. 316 (1981), 186).
The IgE-rich ovalbumin antiserum used in the test was obtained from immunized Brown-Norway rats. The were immunized with an intraperitoneal injection of a mixture of 100 μg of ovalbumin with a Bordetella pertussis suspension (Vaxicoq™, Manufactured by Institute Merieux, containing 5×10^9 organisms and 1.25 mg Al(OH)3). After 20 days the animals were re-immunized with a further intraperitoneal injection of a solution of 10 μg ovalbumin in 0.5 ml physiological saline solution. After a further four days the blood was removed from the animals and centrifuged. The resulting antiserum was stored at -20° C. until use.
as §2, §3, §4, §5, §6, §7

mice = details: mouse, in vivo, 1440 min
Method: 2. Determination of Minimum Toxic Dose
Maximum doses of 300 mg/kg of the test substance were administered orally to male mice weighing 20-25 g. The animals were observed carefully for 3 hours for toxicity symptoms. In addition, all symptoms and deaths were recorded over a period of 24 hours after administration. Associated symptoms were also observed and recorded. If death or severe toxic symptoms were observed, additional mice were administered increasingly lower doses. The lowest dose which produced death or severe toxic symptoms is given in the following Table B as the minimum toxic dose.

[3] = system: PAF-induced aggregation of rabbit blood platelets; test: Anti-PAF activity in vitro, PAF-induced platelet aggregation; type: cell-based, rabbit (New Zealand hybrids); details: Oryctolagus cuniculus, test substance 10^-5 mole/l, pH 7.4
Excerpt: 4. Determination of Anti-PAF Activity In Vitro
PAF (=Platelet Activating Factor) is a phospholipid mediator which has many effects. Activation of platelet aggregation induces protracted broncho-contraction and hyper-reactivity of the air paths.
In this test the effect of the test substances on platelet aggregation induced by adding PAF to a suspension of platelets obtained from rabbit blood is investigated using the method described by Mikashima et al. (Jap. J. Pharmacol. 44 (1987) 387-391).
A suspension of platelets obtained from rabbit blood containing 4×10^9 platelets/ml in a modified Tyrode buffer solution (=Tyrode solution with 1.3 mM/l CaCl2 and 2.5 g/l gelatine added) adjusted to pH 7.4 was used. Tyrode solution is an aqueous solution containing 136.9 mmoles NaCl, 2.68 mmoles KCl, 2.31 mmoles CaCl2, 1.0 mmole MgCl2, 11.9 mmoles NaHCO3, 1.45 mmoles NaH2 PO4 and 5.55 mmoles glucose per liter. The platelets were obtained from 10 ml blood samples from each of three rabbits (New Zealand hybrids, body weight 3-4 kg). For this the blood samples were treated with ethylenediamine tetraacetic acid and washed according to the method of Artley et al. (Brit. J. Hematol. 19 (1970), 7-17). A platelet-rich plasma was then initially separated by centrifuging (20 minutes at 400×g). The blood platelets were separated from the plasma by recentrifuging for 15 minutes at 1,400×g. The platelets remaining as sediment after centrifuging were resuspended in a Tyrode buffer solution (but without calcium). 0.4 mmole of lysine acetylsalicylate was then added, and after 15 minutes the platelets were sedimented again. The sediment was resuspended in the aforementioned modified Tyrode buffer solution, and the number of platelets in the resulting suspension was adjusted to the desired content.
A 40×10^-9 molar PAF solution was used as a reagent. This solution was made from a 1.8×10^-3 molar stock solution in chloroform. For this purpose a 10 μl sample of the stock solution was evaporated to dryness and redissolved in 180 μl of the modified Tyrode solution to which 0.25% of lipid-free bovine serum albumin had been added. From this 10^-5 molar working solutions were then prepared and stored frozen. Samples of these solutions were appropriately diluted for the tests.
To carry out the test 50 μl of the platelet suspension and 10 μl of a 40×10^-5 molar solution of the compound being investigated were added with stirring (1,000 rpm) to 330 μl of the modified Tyrode buffer solution in an aggregation tube provided with a small magnetic stirrer. This corresponds to a final test substance concentration of 10^-5 mole/l. After 90 seconds preincubation time, 10 μl of the PAF preparation were added. The aggregation occurring in the aggregation tubes was measured over 4-5 minutes with the aid of a computerized aggregometer.
The aggregation which occurred in test tubes containing only platelet suspension was evaluated as 0%, whereas the aggregation which occurred in test tubes containing platelet suspension and PAF preparation was evaluated as 100%. The aggregation which still occurred during the inhibition of the PAF induced platelet aggregation due to the addition of the test substances was measured, and the resulting aggregation inhibition was calculated therefrom in %.

[4] = 0.5 min, after 30 seconds, read-out: % inhibition of histamine-induced ileum contractions after 30 seconds
[5] = 10 min, after 10 minutes (after washing), read-out: % inhibition of histamine-induced ileum contractions after 10 minutes

T1 sequence (P31389 whole entry): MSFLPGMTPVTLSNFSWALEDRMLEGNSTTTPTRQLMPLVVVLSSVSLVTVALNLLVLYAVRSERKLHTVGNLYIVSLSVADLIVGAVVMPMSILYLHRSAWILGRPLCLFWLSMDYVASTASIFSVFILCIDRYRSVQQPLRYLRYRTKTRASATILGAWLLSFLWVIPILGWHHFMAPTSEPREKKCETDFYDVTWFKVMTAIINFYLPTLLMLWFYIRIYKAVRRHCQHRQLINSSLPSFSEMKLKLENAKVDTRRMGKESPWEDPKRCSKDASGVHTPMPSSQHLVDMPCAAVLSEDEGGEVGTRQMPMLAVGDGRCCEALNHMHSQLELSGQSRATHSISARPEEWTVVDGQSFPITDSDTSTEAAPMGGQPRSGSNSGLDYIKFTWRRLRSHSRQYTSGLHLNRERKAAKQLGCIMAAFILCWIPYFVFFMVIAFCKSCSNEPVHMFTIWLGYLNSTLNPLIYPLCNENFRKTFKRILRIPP

inhibition at 1 µM (histamine-(H1)-receptor; [4])	inhibition at 1 µM (histamine-(H1)-receptor; [5])	SMILES	inhibition in vivo at 20 µmol/kg [1]	inhibition in vivo at 20 µmol/kg [2]	Minimum toxic dose (mice)	inhibition at 10 µM [3]
60%	42%	COc1ccc2c(c1)SC(CCCCN1CCN(c3cc(C)ccn3)CC1)C(=O)N2 (centres unmarked) [Example 19, 7-methoxy-2-{4-[4-(4-methylpyridin-2-yl)-piperazin-1-yl]-butyl}-2H-1,4-benzothiazine-3(4H)-one]	60%	80%		
		O=C1Nc2ccccc2SC1CCCCN1CCN(c2ncccn2)CC1 (centres unmarked) [Example 12]	50%	80%	300 mg/kg	
38%	45%	CCCCN1C(=O)C(CCCCN2CCN(c3cc(C)ccn3)CC2)Sc2ccccc21 (centres unmarked) [Example 28]	40%	65%		45%
50%	32%	Cc1ccnc(N2CCN(CCCCC3Sc4cc(O)ccc4NC3=O)CC2)c1 (centres unmarked) [Example 25]	15%	50%		
66%	28%	Cc1ccnc(N2CCN(CCCCC3Sc4ccccc4N(C)C3=O)CC2)c1 (centres unmarked) [Example 3, 4-methyl-2-{4-[4-(4-methylpyridin-2-yl)-piperazin-1-yl]butyl}-2H-1,4-benzothiazine-3(4H)-one]	55%	80%		
50%	89%	Cc1ccnc(N2CCN(CCCCC3Sc4cc(C)c(C)cc4NC3=O)CC2)c1 (centres unmarked) [Example 21]	55%	78%		37%
70%	86%	Cc1ccnc(N2CCN(CCCCC3Oc4ccc(C)cc4NC3=O)CC2)c1 (centres unmarked) [Example 24]	60%	80%		
70%	83%	Cc1ccnc(N2CCN(CCCCC3Oc4ccc(Cl)cc4NC3=O)CC2)c1 (centres unmarked) [Example 23]				
42%	36%	Cc1ccnc(N2CCN(CCCC3Sc4cc(C)ccc4NC3=O)CC2)c1 (centres unmarked) [Example 10]	35%	70%		74%
		O=C1Nc2ccccc2SC1CCCCN1CCN(c2ccccn2)CC1 (centres unmarked) [Example 17]	35%	70%		
16%	72%	Cc1ccnc(N2CCN(CCCCC3Sc4cc(Cl)ccc4NC3=O)CC2)c1 (centres unmarked) [Example 27]	35%	60%		35%
78%	83%	Cc1ccnc(N2CCN(CCCCC3Sc4cc(F)ccc4NC3=O)CC2)c1 (centres unmarked) [Example 18]	53%	80%		76%

SMILES	inhibition at 1 µM (histamine-(H1)-receptor; [4])	inhibition at 1 µM (histamine-(H1)-receptor; [5])	inhibition in vivo at 20 µmol/kg [1]	inhibition in vivo at 20 µmol/kg [2]	Minimum toxic dose (mice)	inhibition at 10 µM [3]
Cc1ccc(N2CCN(CCCCC3Sc4ccccc4NC3=O)CC2)nc1 (centres unmarked) [Example 13]	42%	15%	30%	55%	100 mg/kg	
COc1cccc(N2CCN(CCCCC3Sc4ccccc4NC3=O)CC2)n1 (centres unmarked) [Example 16]	30%	27%	45%	50%	300 mg/kg	
Cc1ccnc(N2CCN(CCCCC3Sc4ccccc4NC3=S)CC2)c1 (centres unmarked) [Example 2, 2-{4-[4-(4-methylpyridin-2-yl)-piperazin-1-yl]butyl}-2H-1,4-benzothiazine-3(4H) -thione]	51%	60%			> 300 mg/kg	60%

From patent publication US5332733A, “Heterocyclically substituted piperazinoakylbenzoxazine and piperazinoalkylbenzothiazine compounds, processes for preparing them, and medicaments containing them” (Kali-Chemie Pharma GmbH, priority 1990, dated 1994)
